Experimental data reported in the NIST ThermoML archive (doi:10.1021/je049777o).

Experiment: xn = mol fraction of the nth substance listed
Settings: 101.3 kPa, Liquid

COC(=O)OC [dimethyl carbonate] + CCCCCCC
Settings	mass density [kg/m3]	viscosity [mPa·s]
293.15 K, x1 = 0.1099	709.87	0.3932
293.15 K, x1 = 0.2176	735.33	0.3924
293.15 K, x1 = 0.3229	763.59	0.4001
293.15 K, x1 = 0.4259	794.8	0.4139
293.15 K, x1 = 0.5266	829.38	0.4321
293.15 K, x1 = 0.6252	867.51	0.4541
293.15 K, x1 = 0.7218	910.1	0.4774
293.15 K, x1 = 0.8165	957.71	0.5078
293.15 K, x1 = 0.9092	1011.41	0.5511
293.15 K, x1 = 1	1069.54	0.6173
298.15 K, x1 = 0.1099	705.39	0.3737
298.15 K, x1 = 0.2176	730.61	0.3723
298.15 K, x1 = 0.3229	758.68	0.3796
298.15 K, x1 = 0.4259	789.63	0.3911
298.15 K, x1 = 0.5266	823.98	0.4095
298.15 K, x1 = 0.6252	861.86	0.4261
298.15 K, x1 = 0.7218	904.23	0.45
298.15 K, x1 = 0.8165	951.63	0.4779
298.15 K, x1 = 0.9092	1005.04	0.5169
298.15 K, x1 = 1	1062.95	0.5734
303.15 K, x1 = 0.1099	700.93	0.3559
303.15 K, x1 = 0.2176	725.89	0.353
303.15 K, x1 = 0.3229	753.73	0.3585
303.15 K, x1 = 0.4259	784.46	0.3719
303.15 K, x1 = 0.5266	818.56	0.3855
303.15 K, x1 = 0.6252	856.24	0.4015
303.15 K, x1 = 0.7218	898.37	0.423
303.15 K, x1 = 0.8165	945.53	0.4491
303.15 K, x1 = 0.9092	998.7	0.4793
303.15 K, x1 = 1	1056.35	0.5403
313.15 K, x1 = 0.1099	691.78	0.32
313.15 K, x1 = 0.2176	716.32	0.3195
313.15 K, x1 = 0.3229	743.68	0.3248
313.15 K, x1 = 0.4259	773.95	0.3316
313.15 K, x1 = 0.5266	807.58	0.3435
313.15 K, x1 = 0.6252	844.82	0.3588
313.15 K, x1 = 0.7218	886.49	0.3777
313.15 K, x1 = 0.8165	933.18	0.402
313.15 K, x1 = 0.9092	985.81	0.4335
313.15 K, x1 = 1	1043.01	0.4807
323.15 K, x1 = 0.1099	682.57	0.2905
323.15 K, x1 = 0.2176	706.62	0.292
323.15 K, x1 = 0.3229	733.52	0.2932
323.15 K, x1 = 0.4259	763.34	0.2997
323.15 K, x1 = 0.5266	796.47	0.3118
323.15 K, x1 = 0.6252	833.28	0.3251
323.15 K, x1 = 0.7218	874.5	0.3403
323.15 K, x1 = 0.8165	920.24	0.3615
323.15 K, x1 = 0.9092	972.84	0.3906
323.15 K, x1 = 1	1029.59	0.427
333.15 K, x1 = 0.1099	673.2	0.2666
333.15 K, x1 = 0.2176	696.76	0.2648
333.15 K, x1 = 0.3229	723.19	0.267
333.15 K, x1 = 0.4259	752.53	0.273
333.15 K, x1 = 0.5266	785.19	0.2828
333.15 K, x1 = 0.6252	821.51	0.2946
333.15 K, x1 = 0.7218	862.31	0.3099
333.15 K, x1 = 0.8165	908.07	0.3291
333.15 K, x1 = 0.9092	959.74	0.3543
333.15 K, x1 = 1	1016	0.3893
343.15 K, x1 = 0.1099	663.69	0.2437
343.15 K, x1 = 0.2176	686.83	0.2429
343.15 K, x1 = 0.3229	712.79	0.2462
343.15 K, x1 = 0.4259	741.63	0.2512
343.15 K, x1 = 0.5266	773.79	0.2603
343.15 K, x1 = 0.6252	809.67	0.2725
343.15 K, x1 = 0.7218	850.05	0.2851
343.15 K, x1 = 0.8165	894.95	0.3015
343.15 K, x1 = 0.9092	946.54	0.3252
343.15 K, x1 = 1	1002.32	0.3527
